Data on seven compounds can be found in patent publication US20250236616A1, “IMMUNOMODULATING AZALIDES” (Zoetis Services LLC, priority 2021, published 2025).

What is called IC50 is the concentration at which inhibition is half-maximal. The minimal effective concentration is the lowest level tested that produced the effect sought. A low value points to an effect from little substance.

For experiment [1], the system named is TNF-α. Put plainly: Whole bovine blood assay, LPS-induced TNF-α. The experiment is classed as cell-based. The settings on record: Bos taurus, fresh whole bovine blood, LPS stimulant; top drug concentration 250 μM. A digest of the protocol:
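Fresh heparinized bovine whole blood was preincubated with compound 4 h at 37 °C, then stimulated with LPS (final 1 μg/mL) for 18 h at 37 °C. Plasma TNF-α was quantified by MSD U-Plex chemiluminescent immunoassay, normalized to total protein (BCA), and IC50 taken for LPS-induced TNF-α inhibition.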

The test system of experiment [2] is IL-1β. Briefly: Whole bovine blood assay, LPS-induced IL-1β (inhibition / overstimulation). The experiment is classed as cell-based. The settings on record: Bos taurus, 18 h, drug concentration giving overstimulation (OS) of LPS-induced IL-1β, top concentration 250 μM. A digest of the protocol: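 IL-1β was quantified by MSD U-Plex chemiluminescence in plasma and normalized to BCA total protein. Bovine blood was pretreated 4 h at 37 °C with compound dilutions before 18 h LPS challenge (1 μg/mL final). Rising IL-1β at high concentrations was recorded as overstimulation.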

The test system of experiment [3] is P. multocida 46572. Put plainly: In vivo mouse lung infection challenge model (murine efficacy), survival. Further details: species or system CD-1 female mice. The settings on record: P. multocida 46572 intranasal challenge; 20 mg/kg subcutaneous; harmonized relative to vehicle (−) and M9 (+) controls. As to the method:
The challenge organism was P. multocida 46572. Target challenge concentration was 5×10^2 CFU/mouse. Isolated colonies from overnight growth (37° C. with 5% CO2) on trypticase soy agar (TSA II) blood plates were transferred to room temperature Brain Heart Infusion Broth (BHIB). The broth culture was incubated 3.5-4 hours to approximately mid-log phase of growth, as measured by forward light scatter at 600 nm (OD600, 0.200). The culture was centrifuged to collect the bacterial pellet. The pellet was re-suspended in BHIB and adjusted to provide an approximate concentration of 2.7 log 10 colony forming units (CFU) in 0.04 mL at the highest concentration. The challenge inoculum concentration was confirmed by serial dilutions of the inoculum for CFU enumeration. On Day −5, CD −1 female mice were received. Mice were given standard rodent diet and water ad libitum. On Day 0, bacterial inoculum (0.04 mL) was administered to each mouse (n=36) intranasally. Compounds of the invention were dosed at 20 mg/kg (0.1 mL) in a buffered (˜pH 5.4) propylene glycol, monothioglycerol and water solution by subcutaneous injection. Animals were observed from Days 1-10. The study was terminated on Day 10. In addition, some treatment groups were sampled at 6, 24, and 48 hours post bacterial challenge for RNA sequence analysis of lung tissue.
The murine efficacy model (P.multocida challenge) was optimized, and the treatment group size was powered to be able to observe statistically significant improvement of survival to expected ranges for immunomodulatory compounds. The experimental design was a randomized complete block design. Mice were individually identified and treatment groups comingled within a cage, with every treatment group equally represented across cages. Mortality was the primary variable. Mortality data was analyzed using a generalized mixed model with fixed effect of treatment and random effect of block. Survival time was also analyzed using the SAS PHREG (survival analysis) procedure to examine whether there were significant differences between treatment groups and the control group. Numerous compounds of the invention and M9 (positive control) were tested in this model at a dose of 20 mg/kg (Table 3). Typical percent survival for no treatment control is in the range of 0-20% based on study to study variation in challenge inoculum and rate of infection. […] Mouse survival for M9 was about 90-100%, further supporting its residual antibacterial properties against the bacterial strain.

In experiment [4] the test system is IL-6. Put plainly: Whole bovine blood assay, LPS-induced IL-6. Format: cell-based. Particulars: Bos taurus, fresh whole bovine blood, LPS stimulant; top drug concentration 250 μM.
In experiment [5] the test system is P. multocida. Briefly: Murine P. multocida intranasal challenge study, treatment 18 hours after challenge, survival. The experiment is classed as in vivo, mice. The settings on record: subcutaneous 18 hours after challenge (5×10^3 CFU/mouse); tulathromycin 16 mg/kg, M9 32 mg/kg, ceftiofur 9 mg/kg. The procedure: In one murine P. multocida intranasal challenge study, mice were administered tulathromycin (16 mg/kg; T02), M9 (32 mg/kg; T03), or ceftiofur (9 mg/kg; T04) by subcutaneous injection 18 hours after bacterial challenge (5×10^3 CFU/mouse) for lung tissue RNA sequence analysis. Survival at Day 7 was about 80%, 50%, and 90% for T02, T03, and T04, respectively, compared to placebo at 0%. Differential gene expression from total lung tissue RNA sequence analysis indicated at least 226 unique genes were up or down regulated (with significance) for T03. Output from ingenuity pathway analysis of these unique genes predicted major upstream regulators of the involved pathways. Data was analyzed based on the number of genes being modulated in the same direction that were associated with a given upstream regulator. An activation z-score of 2 or greater is considered significant and the direction change is indicated by + (activated) or -(inhibited). The top 5 pathways included: IL-9 signaling, glucocorticoid receptor signaling, prolactin signaling, JAK STAT signaling, and IL-17 signaling. The top 6 upstream regulators (activation z-score) included: lipopolysaccharide (−6.725), TNF (−4.669), IFNγ (−5.759), IL-1β (−5.947), STAT1 (−2.787), and poly rl: rC-RNA (−5.289). Even though this study was run in the murine model, the top upstream regulators identified as being modulated by M9 include an almost ubiquitous overlap with the pathways identified in the natural disease study as being key mediators in BRD, and therefore is modulating highly relevant pathways in BRD pathobiology.

The subject of experiment [6] is H. somni. Put plainly: MIC, H. somni strains. The settings on record: H. somni strains. Format: cell-based. The text has this: Primary screening of the compounds of the invention included the evaluation of antibacterial activity of analogs through determination of microbial inhibition concentration (MIC) as per CLSI guidelines. The screening panel included the relevant BRD pathogens: 1) M. haemolytica (e.g., 12726, 46571 and 49023, all AHDRCC; and 33396 (ATCC)); and 2) P. multocida (e.g., 34135 and 46572 (both AHDRCC) and 43137 (ATCC)). In some instances, H. somni (A700025K) pathogens were also included in the screening panel. The AHDRCC strains originated from the Zoetis BRD/SRD surveillance program and refer to the Animal Health Development and Research Culture Collection. In addition, the screen assessed S. aureus (29213 ATCC) as a representative Gram-positive isolate, E.faecalis (19433 ATCC) as a commensal gram-positive gastrointestinal bacterium and E. coli (100, 3110 and 25922 (ATCC)) for the evaluation of efflux potential. The screening panel BRD pathogens were assessed in determining antibacterial activity of the Formula (1) compounds.
All relevant BRD pathogens were initially screened at a top concentration of 64 μg/mL of a Formula (1) compound in an eleven-point dilution series. […] If an Example was purified further, the MICs moved […] essentially two dilutions across all strains tested in the screening panel.
In-Vitro MIC Model Compounds were analyzed for antibacterial activity against a panel of animal health specific gram-positive and gram-negative clinical strains by diluting compounds in DMSO to an appropriate stock concentration to determine the Minimal Inhibitory Concentration (MIC) via a semi-automated broth micro-dilution method (CLSI reference method) with QC strains and anti-microbial agent(s). Specifically, bacteria were grown overnight on TSA w/5% sheep blood agar plates and diluted in saline buffer to a McFarland Standard 0.5, then further diluted in cation-ion adjusted Mueller Hinton Broth to a final concentration of approximately 5×10^5 CFU/mL. 100 μL of inoculated media was added to 96-well plate(s) with 3 μL of serially diluted compound in each row. Depending on strain (see CLSI reference method), bacteria were incubated 18-22 hours at 35-37° C. in ambient air, with 5% CO2 or anaerobically (up to 48 hours).

Turning to `CCCNC[C@]1(O)[C@H](C)O[C@@H](O[C@H]2[C@H](C)[C@@H](O[C@@H]3O[C@H](C)C[C@H](N(C)S(=O)(=O)N(C)C4CCCCC4)[C@H]3O)[C@](C)(O)C[C@@H](C)CN[C@H](C)[C@@H](O)[C@](C)(O)[C@@H](CC)OC(=O)[C@@H]2C)C[C@@]1(C)OC` [Example B-49, (2R,3S,4R,5R,8R,10R,11R,12S,13S,14R)-11-[(2S,3R,4S,6R)-4-[[cyclohexyl(methyl)sulfamoyl]-methylamino]-3-hydroxy-6-methyloxan-2-yl]oxy-2-ethyl-3,4,10-trihydroxy-13-[(2R,4R,5S,6S)-5-hydroxy-4-methoxy-4,6-dimethyl-5-(propylaminomethyl)oxan-2-yl]oxy-3,5,8,10,12,14-hexamethyl-1-oxa-6 azacyclopentadecan-15-one], the results for the IC50 in experiment [1] and in experiment [4] were 37 µM and 16 µM, respectively. Besides, the minimal effective concentration in experiment [2] was found to be 6 µM. In experiment [3], the “% Survival” value is 53%.

On to `CC[C@H]1OC(=O)[C@H](C)[C@@H](O[C@H]2C[C@@](C)(OC)[C@](O)(CNCCCN3CCCCC3)[C@H](C)O2)[C@H](C)[C@@H](O[C@@H]2O[C@H](C)C[C@H](N(C)S(=O)(=O)c3ccc(Cl)cc3)[C@H]2O)[C@](C)(O)C[C@@H](C)CN[C@H](C)[C@@H](O)[C@]1(C)O` [Example B-58, 4-chloro-N-((2S,3R,4S,6R)-2-(((2R,3S,4R,5R,8R,10R,11R,12S,13S, 14R)-2-ethyl-3,4,10-trihydroxy-13-(((2R,4R,5S,6S)-5-hydroxy-4-methoxy-4,6-dimethyl-5-(((3-(piperidin-1-yl)propyl)amino)methyl)tetrahydro-2H-pyran-2-yl)oxy)-3,5,8,10,12,14-hexamethyl-15-oxo-1-oxa-6-azacyclopentadecan-11-yl)oxy)-3-hydroxy-6-methyltetrahydro-2H-pyran-4-yl)-N-methylbenzenesulfonamide], for which the half-maximal inhibitory concentration (IC50) in experiment [1] was 29 µM; in experiment [4], 75 µM. This compound also came in with a minimal effective concentration in experiment [2] of 40 µM. Moreover, in experiment [3], the “% Survival” value came out at 32%.

In the case of `CCCNC[C@]1(O)[C@H](C)OC(O[C@H]2[C@H](C)[C@@H](O[C@@H]3O[C@H](C)C[C@H](N(C)S(=O)(=O)c4nccn4C)[C@H]3Oc3ccc(F)cc3)[C@](C)(O)C[C@@H](C)CN[C@H](C)[C@@H](O)[C@](C)(O)[C@@H](CC)OC(=O)[C@@H]2C)C[C@@]1(C)OC` (stereo partly drawn) [Example B-107, N-[(2S,3R,4S,6R)-2-[[(2R,3S,4R,5R,8R,10R,11R,12S,13S, 14R)-2-ethyl-3,4,10-trihydroxy-13-[(4R,5S,6S)-5-hydroxy-4-methoxy-4,6-dimethyl-5-(propylaminomethyl)oxan-2-yl]oxy-3,5,8, 10, 12, 14-hexamethyl-15-oxo-1-oxa-6-azacyclopentadec-11-yl]oxy]-3-(4-fluorophenoxy)-6-methyloxan-4-yl]-N, 1-dimethylimidazole-2-sulfonamide], the 50% inhibitory concentration (IC50) in experiment [1] worked out at 22 µM; in experiment [4], 9 µM. In experiment [2], the minimal effective concentration turned out to be 2 µM. The “% Survival” value in experiment [3] turned out to be 82%.

As for `CCCNC[C@]1(O)[C@H](C)O[C@@H](O[C@H]2[C@H](C)[C@@H](O[C@@H]3O[C@H](C)C[C@H](N(Cc4ccc(OC)cc4)S(=O)(=O)c4ccccc4)[C@H]3O)[C@](C)(O)C[C@@H](C)CN[C@H](C)[C@@H](O)[C@](C)(O)[C@@H](CC)OC(=O)[C@@H]2C)C[C@@]1(C)OC` [Example B-148, N-((2S,3R,4S,6R)-2-(((2R,3S,4R,5R,8R,10R,11R,12S,13S,14R)-2-ethyl-3,4,10-trihydroxy-13-(((2R,4R,5S,6S)-5-hydroxy-4-methoxy-4,6-dimethyl-5-((propylamino)methyl)tetrahydro-2H-pyran-2-yl)oxy)-3,5,8,10, 12, 14-hexamethyl-15-oxo-1-oxa-6-azacyclopentadecan-11-yl)oxy)-3-hydroxy-6-methyltetrahydro-2H-pyran-4-yl)-N-(4-methoxybenzyl)benzenesulfonamide], the IC50 was 2 µM in experiment [1] and 4 µM in experiment [4]. The compound also returned a minimal effective concentration in experiment [2] of 2 µM. In experiment [3], the “% Survival” value was 68%.

With `CO/N=C(\C(=O)N[C@@H]1C(=O)N2C(C(=O)O)=C(CSC(=O)c3ccco3)CS[C@H]12)c1csc(N)n1` [ceftiofur], the “Survival at Day 7” value in experiment [5] is approximately 90%.

As for `CCN1CCN(c2cc3c(cc2F)c(=O)c(C(=O)O)cn3C2CC2)CC1` [enrofloxacin], in experiment [6], the “MIC values, range” value is less than 0.06 to 1 µg/mL.

For `CS(=O)(=O)c1ccc([C@@H](O)[C@@H](CF)NC(=O)C(Cl)Cl)cc1` [florfenicol], the “MIC values, range” value in experiment [6] lay within 0.12 to 2 µg/mL.
